{"source": "patent US8569499B2", "about": "“Process for making trans-1-((1R,3S)-6-chloro-3-phenylindan-1-yl)-3,3-dimethylpiperazine” (H. Lundbeck A/S, priority 2005, dated 2013)", "key": {"[1]": {"system": "pigs sensitized to haloperidol", "test": "dystonia in pigs sensitized to haloperidol", "format": "in vivo"}, "[2]": {"target": "dopamine (DA) D1 receptors (Homo sapiens, UniProt P21728)", "sequence (P21728 whole entry)": "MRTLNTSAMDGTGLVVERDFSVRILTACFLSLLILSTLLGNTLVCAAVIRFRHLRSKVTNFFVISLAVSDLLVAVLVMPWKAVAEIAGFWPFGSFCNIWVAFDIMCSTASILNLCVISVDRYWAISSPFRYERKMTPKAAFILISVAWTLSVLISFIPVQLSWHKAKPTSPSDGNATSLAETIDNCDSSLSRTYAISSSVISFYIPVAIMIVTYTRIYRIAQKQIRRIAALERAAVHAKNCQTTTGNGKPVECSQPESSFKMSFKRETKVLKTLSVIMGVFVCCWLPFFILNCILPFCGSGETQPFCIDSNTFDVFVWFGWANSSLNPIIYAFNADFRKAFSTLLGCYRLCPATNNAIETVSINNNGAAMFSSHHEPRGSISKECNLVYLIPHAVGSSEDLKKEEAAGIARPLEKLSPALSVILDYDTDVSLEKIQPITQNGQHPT", "conditions": "as described in PCT/DK04/000546; cited from earlier work"}, "DA D2 receptors": {"target": "DA D2 receptors (Homo sapiens, UniProt P14416)", "sequence (P14416 whole entry)": "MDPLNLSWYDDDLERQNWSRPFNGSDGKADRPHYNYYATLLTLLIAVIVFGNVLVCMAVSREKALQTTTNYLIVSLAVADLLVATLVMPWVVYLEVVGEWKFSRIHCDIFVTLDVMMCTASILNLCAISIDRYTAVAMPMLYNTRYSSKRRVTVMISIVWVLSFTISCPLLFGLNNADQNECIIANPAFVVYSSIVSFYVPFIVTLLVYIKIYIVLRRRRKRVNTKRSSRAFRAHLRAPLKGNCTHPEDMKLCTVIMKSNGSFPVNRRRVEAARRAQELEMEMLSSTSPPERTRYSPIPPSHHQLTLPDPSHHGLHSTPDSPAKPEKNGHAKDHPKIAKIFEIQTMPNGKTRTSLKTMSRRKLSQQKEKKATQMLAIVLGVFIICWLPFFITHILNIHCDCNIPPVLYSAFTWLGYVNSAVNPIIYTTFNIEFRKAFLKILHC", "conditions": "as described in PCT/DK04/000546; cited from earlier work"}, "alfa1 adrenoceptors": {"system": "alfa1 adrenoceptors", "conditions": "as described in PCT/DK04/000546; cited from earlier work"}, "dopamine D1 receptors": {"target": "dopamine D1 receptors (Homo sapiens, UniProt P21728)", "sequence (P21728 whole entry)": "as the sequence (P21728 whole entry) above", "conditions": "as described in PCT/DK04/000546; cited from earlier work"}, "dopamine D2 receptors": {"target": "dopamine D2 receptors (Homo sapiens, UniProt P14416)", "sequence (P14416 whole entry)": "as the sequence (P14416 whole entry) above", "conditions": "as described in PCT/DK04/000546; cited from earlier work"}, "[3]": {"target": "serotonin 5-HT2a receptors (Homo sapiens, UniProt P28223)", "sequence (P28223 whole entry)": "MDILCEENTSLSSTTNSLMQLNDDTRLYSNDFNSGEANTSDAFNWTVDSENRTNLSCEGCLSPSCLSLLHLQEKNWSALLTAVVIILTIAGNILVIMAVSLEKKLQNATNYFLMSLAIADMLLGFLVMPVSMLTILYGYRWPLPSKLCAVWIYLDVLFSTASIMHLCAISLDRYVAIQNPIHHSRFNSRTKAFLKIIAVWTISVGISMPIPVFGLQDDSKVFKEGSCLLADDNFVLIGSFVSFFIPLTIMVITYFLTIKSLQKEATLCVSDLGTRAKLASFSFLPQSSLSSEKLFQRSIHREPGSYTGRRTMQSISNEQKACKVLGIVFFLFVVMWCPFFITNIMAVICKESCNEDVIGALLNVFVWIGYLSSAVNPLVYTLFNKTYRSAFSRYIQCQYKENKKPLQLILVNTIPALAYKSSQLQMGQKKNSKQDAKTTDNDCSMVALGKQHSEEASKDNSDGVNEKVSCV", "conditions": "as described in PCT/DK04/000546; cited from earlier work"}, "CYP2D6": {"target": "CYP2D6 (Homo sapiens, UniProt P10635)", "sequence (P10635 whole entry)": "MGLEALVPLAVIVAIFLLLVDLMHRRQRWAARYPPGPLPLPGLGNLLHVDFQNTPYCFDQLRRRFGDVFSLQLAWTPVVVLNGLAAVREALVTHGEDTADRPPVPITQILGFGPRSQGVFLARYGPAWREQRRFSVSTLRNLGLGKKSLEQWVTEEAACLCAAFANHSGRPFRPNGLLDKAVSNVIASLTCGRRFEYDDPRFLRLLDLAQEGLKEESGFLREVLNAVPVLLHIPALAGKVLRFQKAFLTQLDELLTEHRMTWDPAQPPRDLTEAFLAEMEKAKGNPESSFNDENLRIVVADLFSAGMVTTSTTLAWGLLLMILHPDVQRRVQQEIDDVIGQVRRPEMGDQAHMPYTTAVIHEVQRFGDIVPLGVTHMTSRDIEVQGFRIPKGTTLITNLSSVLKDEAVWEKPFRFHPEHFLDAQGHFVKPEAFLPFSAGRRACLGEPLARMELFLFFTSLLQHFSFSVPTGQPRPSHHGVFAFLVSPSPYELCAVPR", "conditions": "as described in PCT/DK04/000546; cited from earlier work"}, "rabbit model": {"system": "rabbit model", "conditions": "as described in PCT/DK04/000546; cited from earlier work"}}, "data": [{"smiles": "CC1(C)CN([C@@H]2C[C@@H](c3ccccc3)c3ccc(Cl)cc32)CCN1", "note": "[Compound I, trans-1-((1R,3S)-6-chloro-3-phenylindan-1-yl)-3,3-dimethylpiperazine]", "values": [{"measurement": "induction of dystonia (EPS liability)", "setting": "[1]", "result": "did not induce dystonia"}, {"measurement": "affinity for dopamine (DA) D1 receptors", "setting": "[2]", "result": "high affinity"}, {"measurement": "affinity for DA D2 receptors", "setting": "DA D2 receptors", "result": "high affinity"}, {"measurement": "affinity for alfa1 adrenoceptors", "setting": "alfa1 adrenoceptors", "result": "high affinity"}, {"measurement": "functional activity at dopamine D1 receptors", "setting": "dopamine D1 receptors", "result": "antagonist"}, {"measurement": "functional activity at dopamine D2 receptors", "setting": "dopamine D2 receptors", "result": "antagonist"}, {"measurement": "functional activity at serotonin 5-HT2a receptors", "setting": "[3]", "result": "antagonist"}, {"measurement": "inhibition of CYP2D6", "setting": "CYP2D6", "result": "relatively weak inhibitor"}, {"measurement": "effect on the QT interval", "setting": "rabbit model", "result": "relatively low effect"}]}]}
